Numbered stars: 1 amine (or outer) side, 2 acyl side, 3 side chain; on linkers, the order of the positions; unused ones are H or OH. Bridge positions count the residues as written; N and C are the ends. Square brackets hold non-standard residues; d marks the D form. Peptide text beside a SMILES is read from it. * marks the point of attachment. hPhe(3,5-F2-4-CF3) = N[C@@H](CCc1cc(F)c(C(F)(F)F)c(F)c1)C(=O)O; hPhe(3-Cl-4-CF3) = N[C@@H](CCc1ccc(C(F)(F)F)c(Cl)c1)C(=O)O; hPhe(3-F,4-CF3) = N[C@@H](CCc1ccc(C(F)(F)F)c(F)c1)C(=O)O; NEtPhe(4-CF3) = CCN[C@@H](Cc1ccc(C(F)(F)F)cc1)C(=O)O; NMePhe(4-CF3) = CN[C@@H](Cc1ccc(C(F)(F)F)cc1)C(=O)O; NMePhe(4-Me) = CN[C@@H](Cc1ccc(C)cc1)C(=O)O; NMedβ3hAla = C[C@H](CC(=O)[*:2])N(C)[*:1]; NMeAla(cPent) = CN[C@@H](CC1CCCC1)C(=O)O; NMeGly(cPent) = CN[C@H](C(=O)O)C1CCCC1; NMeCha = CN[C@@H](CC1CCCCC1)C(=O)O; Hyp = O=C(O)[C@@H]1C[C@@H](O)CN1; NMeI = CC[C@H](C)[C@H](NC)C(=O)O; NMeD = CN[C@@H](CC(=O)O)C(=O)O; NMeL = CN[C@@H](CC(C)C)C(=O)O; NMeS = CN[C@@H](CO)C(=O)O; Morpholide = C1CN(*)CCO1; NMeA = CN[C@@H](C)C(=O)O; Piperidide = C1CCN(*)CC1; Ac5c = NC1(C(=O)O)CCCC1; Aze = O=C(O)[C@@H]1CCN1; Sar = CNCC(=O)O; Propyl = CCC*
Columns and labels:
[1] = biological target: protein-protein interaction between Kras and SOS1 (biotin-tagged human Kras loaded with GDP, His-tagged human SOS1) (Homo sapiens (Human), UniProt P01116, G12D); assay: Protein-protein interaction inhibition between Kras and SOS1 (KrasG12D-SOS PPI) using AlphaScreen; format: biochemical; settings: AlphaScreen; biotin-tagged human Kras loaded with GDP, His-tagged human SOS1; read-out: KRAS G12D-SOS PPI IC50;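 note: kras produced in E. coli, Ni-coupled donor beads and streptavidin acceptor beads, excitation 680 nm with emission detected at 520–620 nm via singlet oxygen transfer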
[2] = system: Human pancreatic cancer cell line AsPC-1 (G12D mutation Kras); assay: AsPC-1 cell growth inhibition (AsPC-1 CGI); format: cell-based; settings: read-out: AsPC-1 cell growth inhibition, 50% growth inhibitory concentration (IC50 value); 96 hours, CellTiter-Glo, values classified in ranges
Description: Test compounds were serially dilated with dimethyl sulfoxide, and 200 nL was then dispensed to a U-bottom 96-well plate using Labcyte Echo. […] The cell suspension was dispensed to a. plate containing a test compound at 100 μL per well and incubated at 37° C. in a 5% carbon dioxide gas incubator. 96 hours later, 80 μL of CellTiter-Glo (Promega) was added to each well and fluorescence was measured.

| Structure (SMILES) | IC50 [1] [nM] | IC50 [2] [nM] |
| --- | --- | --- |
| CC[C@H](C)[C@@H]1NC(=O)[C@H](CC(C)C)N(C)C(=O)C[C@@H](C(=O)N2CCCCC2)N(C)C(=O)[C@H](C2CCCC2)N(C)C(=O)C2(CCCC2)NC(=O)[C@@H]2CCCN2C(=O)[C@H](CCc2ccc(C(F)(F)F)c(Cl)c2)NC(=O)CN(C)C(=O)[C@H](Cc2ccc(C(F)(F)F)cc2)N(C)C(=O)[C@@H]2CCN2C(=O)[C@H](C)N(C)C1=O [Compound 370] ([NMeL]I[NMeA][Aze][NMePhe(4-CF3)][Sar][hPhe(3-Cl-4-CF3)]P[Ac5c][NMeGly(cPent)][NMeD]-Piperidide; lactam N-11) | 0.35 | ≤ 20 |
| CC[C@H](C)[C@@H]1NC(=O)[C@H](CC(C)C)N(C)C(=O)C[C@@H](C)N(C)C(=O)[C@H](C2CCCC2)N(C)C(=O)C2(CCCC2)NC(=O)[C@@H]2CCCN2C(=O)[C@H](CCc2cc(F)c(C(F)(F)F)c(F)c2)NC(=O)CN(C)C(=O)[C@H](Cc2ccc(C(F)(F)F)cc2)N(C)C(=O)[C@@H]2CCN2C(=O)[C@H](C)N(C)C1=O [Compound 371] (cyclo([Ac5c][NMeGly(cPent)][NMedβ3hAla][NMeL]I[NMeA][Aze][NMePhe(4-CF3)][Sar][hPhe(3,5-F2-4-CF3)]P)) | 1.3 | ≤ 20 |
| CCO[C@@H]1C[C@H]2C(=O)NC3(CCCC3)C(=O)N(C)[C@@H]([C@@H](C)CC)C(=O)N(C)[C@H](C)CC(=O)N(C)[C@@H](CC(C)C)C(=O)N[C@@H]([C@@H](C)CC)C(=O)N(C)[C@@H](C)C(=O)N3CC[C@H]3C(=O)N(CC)[C@@H](Cc3ccc(C(F)(F)F)cc3)C(=O)N(C)CC(=O)N[C@@H](CCc3cc(F)c(C(F)(F)F)c(F)c3)C(=O)N2C1 [Compound 374] (cyclo([Ac5c][NMeI][NMedβ3hAla][NMeL]I[NMeA][Aze][NEtPhe(4-CF3)][Sar][hPhe(3,5-F2-4-CF3)][Hyp](Et))) | 6.5 | ≤ 20 |
| CC[C@H](C)[C@@H]1NC(=O)[C@H](CC(C)C)N(C)C(=O)C[C@@H](C(=O)N2CCOCC2)N(C)C(=O)[C@H]([C@@H](C)CC)N(C)C(=O)C2(CCCC2)NC(=O)[C@@H]2CCCN2C(=O)[C@H](CCc2ccc(C(F)(F)F)c(Cl)c2)NC(=O)CN(C)C(=O)[C@H](C2CCCC2)N(C)C(=O)[C@@H]2CCN2C(=O)[C@H](C)N(C)C1=O [Compound 381] ([NMeL]I[NMeA][Aze][NMeGly(cPent)][Sar][hPhe(3-Cl-4-CF3)]P[Ac5c][NMeI][NMeD]-Morpholide; lactam N-11) | 1.6 | ≤ 20 |
| CC[C@H](C)[C@@H]1NC(=O)[C@H](CC(C)C)N(C)C(=O)C[C@@H](C(=O)N2CCOCC2)N(C)C(=O)[C@H](C2CCCC2)N(C)C(=O)C2(CCCC2)NC(=O)[C@@H]2CCCN2C(=O)[C@H](CCc2ccc(C(F)(F)F)c(F)c2)NC(=O)CN(C)C(=O)[C@H](CC2CCCCC2)N(C)C(=O)[C@@H]2CCN2C(=O)[C@H](C)N(C)C1=O [Compound 390] ([NMeL]I[NMeA][Aze][NMeCha][Sar][hPhe(3-F,4-CF3)]P[Ac5c][NMeGly(cPent)][NMeD]-Morpholide; lactam N-11) | 0.77 | ≤ 20 |
| CC[C@H](C)[C@@H]1NC(=O)[C@H](CC2CCCC2)N(C)C(=O)C[C@@H](C(=O)N(C)C)N(C)C(=O)[C@H]([C@@H](C)CC)N(C)C(=O)C2(CCCC2)NC(=O)[C@@H]2CCCN2C(=O)[C@H](CCc2ccc(C(F)(F)F)c(Cl)c2)NC(=O)CN(C)C(=O)[C@H](Cc2ccc(C)cc2)N(C)C(=O)[C@@H]2CCN2C(=O)[C@H](C)N(C)C1=O [Compound 400] ([NMeAla(cPent)]I[NMeA][Aze][NMePhe(4-Me)][Sar][hPhe(3-Cl-4-CF3)]P[Ac5c][NMeI][NMeD]-NMe2; lactam N-11) | 0.85 | ≤ 20 |
| CC[C@H](C)[C@@H]1NC(=O)[C@H](CC(C)C)N(C)C(=O)C[C@@H](C)N(C)C(=O)[C@H]([C@@H](C)CC)N(C)C(=O)C2(CCCC2)NC(=O)[C@@H]2CCCN2C(=O)[C@H](CCc2ccc(C(F)(F)F)c(F)c2)NC(=O)CN(C)C(=O)[C@H](Cc2ccc(C)cc2)N(C)C(=O)[C@@H]2CCN2C(=O)[C@H](C)N(C)C1=O [Compound 404] (cyclo([Ac5c][NMeI][NMedβ3hAla][NMeL]I[NMeA][Aze][NMePhe(4-Me)][Sar][hPhe(3-F,4-CF3)]P)) | 4.8 | ≤ 20 |
| CCCOC[C@H]1C(=O)N(C)CC(=O)N[C@@H](CCc2ccc(C(F)(F)F)c(Cl)c2)C(=O)N2CCC[C@H]2C(=O)NC2(CCCC2)C(=O)N(C)[C@@H](C2CCCC2)C(=O)N(C)[C@H](C(=O)N2CCCCC2)CC(=O)N(C)[C@@H](CC(C)C)C(=O)N[C@@H]([C@@H](C)CC)C(=O)N(C)[C@@H](C)C(=O)N2CC[C@H]2C(=O)N1C [Compound 415] ([NMeL]I[NMeA][Aze][NMeS](Propyl)[Sar][hPhe(3-Cl-4-CF3)]P[Ac5c][NMeGly(cPent)][NMeD]-Piperidide; lactam N-11) | 1.5 | ≤ 20 |
